Data reported in US20140288052A1, “SUBSTITUTED BICYCLIC AZA-HETEROCYCLES AND ANALOGUES AS SIRTUIN MODULATORS” (GlaxoSmithKline, LLC, priority 2011, published 2014).

What was measured:
SIRT1 [1] = molecular target: T1, SIRT1 (Homo sapiens, UniProt Q96EB6); experiment: Trp mass spectrometry assay of SIRT1 deacetylase activation; type: biochemical; conditions: Trp peptide substrate; for TRP EC1.5 (μM): concentration that results in 150% activation of SIRT1; for TRP % Fold Act: percent maximum fold activation relative to control (100%)
T1 sequence (Q96EB6 1-747): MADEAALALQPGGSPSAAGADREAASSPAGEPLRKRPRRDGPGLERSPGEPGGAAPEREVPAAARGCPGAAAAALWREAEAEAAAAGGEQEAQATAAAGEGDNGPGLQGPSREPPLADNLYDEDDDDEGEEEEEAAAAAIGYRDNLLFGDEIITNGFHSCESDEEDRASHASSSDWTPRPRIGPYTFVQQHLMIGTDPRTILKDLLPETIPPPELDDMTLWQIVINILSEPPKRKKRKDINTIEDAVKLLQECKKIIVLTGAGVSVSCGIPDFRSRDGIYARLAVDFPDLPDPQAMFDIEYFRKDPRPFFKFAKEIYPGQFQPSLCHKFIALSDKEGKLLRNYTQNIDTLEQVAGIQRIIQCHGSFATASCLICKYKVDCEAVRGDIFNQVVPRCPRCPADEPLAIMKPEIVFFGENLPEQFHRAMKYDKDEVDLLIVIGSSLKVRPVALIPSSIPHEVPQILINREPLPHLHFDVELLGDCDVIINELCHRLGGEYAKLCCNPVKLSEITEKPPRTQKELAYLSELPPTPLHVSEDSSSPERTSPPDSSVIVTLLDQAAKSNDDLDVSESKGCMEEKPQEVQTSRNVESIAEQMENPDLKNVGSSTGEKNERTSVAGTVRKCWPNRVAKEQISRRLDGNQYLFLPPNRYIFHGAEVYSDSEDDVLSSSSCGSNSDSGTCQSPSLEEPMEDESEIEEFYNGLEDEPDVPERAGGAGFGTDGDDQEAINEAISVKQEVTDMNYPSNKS
Excerpt: (§1) Mass spectrometry based assays were used to identify modulators of SIRT1 activity. The TAMRA based assay utilized a peptide having 20 amino acid residues as follows: Ac-EE-K(biotin)-GQSTSSHSK(Ac)NleSTEG-K(5TMR)-EE-NH2 (SEQ ID NO: 1), wherein K(Ac) is an acetylated lysine residue and Nle is a norleucine. The peptide was labeled with the fluorophore 5TMR (excitation 540 nm/emission 580 nm) at the C-terminus. The sequence of the peptide substrate was based on p53 with several modifications. In addition, the methionine residue naturally present in the sequence was replaced with the norleucine because the methionine may be susceptible to oxidation during synthesis and purification. The Trp based assay utilized a peptide having an amino acid residues as follows: Ac-R-H-K-K(Ac)-W-NH2 (SEQ ID NO: 2).
The Trp mass spectrometry assay was conducted as follows. 0.5 μM peptide substrate and 120 μM βNAD^+ were incubated with 10 nM SIRT1 for 25 minutes at 25° C. in a reaction buffer (50 mM HEPES pH 7.5, […], 1 mM DTT, 0.05% BSA). The SIRT1 protein was obtained by cloning the SirT1 gene into a T7-promoter containing vector, which was then expressed in BL21(DE3) bacterial cells and purified as described in further detail below. Test compound was added at varying concentrations to this reaction mixture and the resulting reactions were monitored. After the 25 minute incubation with SIRT1, 10 μL of 10% formic acid was added to stop the reaction. The resulting reactions were sealed and frozen for later mass spec analysis. The relative SIRT1 activity was then determined by measuring the amount of O-acetyl-ADP-ribose (OAADPR) formed (or, alternatively, the amount of deacetylated Trp peptide generated) by the NAD-dependent sirtuin deacetylation reaction in the presence of varying concentrations of the test compound versus control reactions lacking the test compound. The degree to which the test agent activated deacetylation by SIRT1 was expressed as EC1.5 (i.e., the concentration of compound required to increase SIRT1 activity by 50% over the control lacking test compound), and Percent Maximum Activation (i.e., the maximum activity relative to control (100%) obtained for the test compound).
(§2) A control for inhibition of sirtuin activity was conducted by adding 1 μL of 500 mM nicotinamide as a negative control at the start of the reaction (e.g., permits determination of maximum sirtuin inhibition). A control for activation of sirtuin activity was conducted using 10 nM of sirtuin protein, with 1 μL of DMSO in place of compound, to determine the amount of deacetylation of the substrate at a given time point within the linear range of the assay. This time point was the same as that used for test compounds and, within the linear range, the endpoint represents a change in velocity. For the above assay, SIRT1 protein was expressed and purified as follows. The SirT1 gene was cloned into a T7-promoter containing vector and transformed into BL21(DE3). The protein was expressed by induction with 1 mM IPTG as an N-terminal His-tag fusion protein at 18° C. overnight and harvested at 30,000×g. Cells were lysed with lysozyme in lysis buffer (50 mM Tris-HCl, 2 mM Tris[2-carboxyethyl] phosphine (TCEP), 10 μM ZnCl2, 200 mM NaCl) and further treated with sonication for 10 min for complete lysis. The protein was purified over a Ni-NTA column (Amersham) and fractions containing pure protein were pooled, concentrated and run over a sizing column (Sephadex S200 26/60 global). The peak containing soluble protein was collected and run on an Ion-exchange column (MonoQ). Gradient elution (200 mM-500 mM NaCl) yielded pure protein. This protein was concentrated and dialyzed against dialysis buffer (20 mM Tris-HCl, 2 mM TCEP) overnight. The protein was aliquoted and frozen at −80° C. until further use.
Sirtuin-modulating compounds of Formula (I) that activated SIRT1 were identified using the assay described above and are shown below in Table 1. […]

SIRT1 [2] = molecular target: T1, SIRT1; experiment: TAMRA based mass spectrometry assay of SIRT1 deacetylase activation; type: biochemical; conditions: TAMRA peptide substrate; for TAMRA EC1.5 (μM): concentration that results in 150% activation of SIRT1; for TAMRA % Fold Act: percent maximum fold activation relative to control (100%)
Excerpt: as §1
The TAMRA based mass spectrometry assay was conducted as follows: 0.5 μM peptide substrate and 120 μM βNAD^+ was incubated with 10 nM SIRT1 for 25 minutes at 25° C. in a reaction buffer (50 mM Tris-acetate pH 8, 137 mM NaCl, 2.7 mM KCl, 1 mM MgCl2, 5 mM DTT, 0.05% BSA). The SIRT1 protein was obtained by cloning the SirT1 gene into a T7-promoter containing vector, which was then transformed and expressed in BL21(DE3) bacterial cells. Test compound was added at varying concentrations to this reaction mixture and the resulting reactions were monitored. After the 25 minute incubation with SIRT1, 10 μL of 10% formic acid was added to stop the reaction. The resulting reactions were sealed and frozen for later mass spec analysis. Determination of the amount of deacetylated substrate peptide formed (or, alternatively, the amount of O-acetyl-ADP-ribose (OAADPR) generated) by the sirtuin-mediated NAD-dependent deacetylation reaction allowed for the precise measurement of relative SIRT1 activity in the presence of varying concentrations of the test compound versus control reactions lacking the test compound.
as §2
Sirtuin-modulating compounds of Formula (I) that activated SIRT1 were identified using the assay described above and are shown below in Table 1. The EC1.5 values represent the concentration of test compounds that result in 150% activation of SIRT1. The EC1.5 values for the activating compounds of Formula (I) are represented by A (EC1.5<1 μM), B (EC1.5 1−25 μM), C (EC1.5>25 μM). […]

O=C(Nc1ccncc1)c1cc(N2CCOCC2)nn2cc(-c3ccccc3C(F)(F)F)nc12 [Compound 46]
TRP EC1.5 (μM) (SIRT1 [1]): C (EC1.5>25 μM) | TRP % Fold Act (SIRT1 [1]): B (Fold Activation<350%) | TAMRA EC1.5 (μM) (SIRT1 [2]): A (EC1.5<1 μM) | TAMRA % Fold Act (SIRT1 [2]): A (Fold activation≧350%)

O=C(Nc1ccnc2cc(-c3ccccc3C(F)(F)F)nn12)c1cccc(OC[C@@H](O)CO)n1 [Compound 115]
TRP EC1.5 (μM) (SIRT1 [1]): A (EC1.5<1 μM) | TRP % Fold Act (SIRT1 [1]): A (Fold activation≧350%) | TAMRA EC1.5 (μM) (SIRT1 [2]): A (EC1.5<1 μM) | TAMRA % Fold Act (SIRT1 [2]): A (Fold activation≧350%)

O=C(Nc1ccnc2cc(-c3ccccc3C(F)(F)F)nn12)c1cccc(OC[C@H](O)CO)n1 [Compound 114]
TRP EC1.5 (μM) (SIRT1 [1]): A (EC1.5<1 μM) | TRP % Fold Act (SIRT1 [1]): A (Fold activation≧350%) | TAMRA EC1.5 (μM) (SIRT1 [2]): A (EC1.5<1 μM) | TAMRA % Fold Act (SIRT1 [2]): A (Fold activation≧350%)

Cc1nc(C(=O)Nc2ccnc3cc(-c4ccccc4C(F)(F)F)nn23)c(C)s1 [Compound 57]
TRP EC1.5 (μM) (SIRT1 [1]): B (EC1.5 1−25 μM) | TRP % Fold Act (SIRT1 [1]): B (Fold Activation<350%) | TAMRA EC1.5 (μM) (SIRT1 [2]): A (EC1.5<1 μM) | TAMRA % Fold Act (SIRT1 [2]): A (Fold activation≧350%)

O=C(Nc1ncccn1)c1ccnc2cc(-c3ccccc3C(F)(F)F)nn12 [Compound 100]
TRP EC1.5 (μM) (SIRT1 [1]): B (EC1.5 1−25 μM) | TRP % Fold Act (SIRT1 [1]): B (Fold Activation<350%) | TAMRA EC1.5 (μM) (SIRT1 [2]): B (EC1.5 1−25 μM) | TAMRA % Fold Act (SIRT1 [2]): A (Fold activation≧350%)

O=C(Nc1ccnc2cc(-c3cccc(C(F)(F)F)c3)nn12)c1cccc(N2CCC2)n1 [Compound 98]
TRP EC1.5 (μM) (SIRT1 [1]): C (EC1.5>25 μM) | TRP % Fold Act (SIRT1 [1]): B (Fold Activation<350%) | TAMRA EC1.5 (μM) (SIRT1 [2]): C (EC1.5>25 μM) | TAMRA % Fold Act (SIRT1 [2]): B (Fold Activation<350%)

O=C(Nc1ccnc2cc(-c3cccc(C(F)(F)F)c3)nn12)c1nccs1 [Compound 95]
TRP EC1.5 (μM) (SIRT1 [1]): C (EC1.5>25 μM) | TRP % Fold Act (SIRT1 [1]): B (Fold Activation<350%) | TAMRA EC1.5 (μM) (SIRT1 [2]): C (EC1.5>25 μM) | TAMRA % Fold Act (SIRT1 [2]): B (Fold Activation<350%)

O=C(Nc1cccc(N2CCOCC2)n1)c1ccnn2cc(-c3ccccc3C(F)(F)F)nc12 [Compound 16]
TRP EC1.5 (μM) (SIRT1 [1]): C (EC1.5>25 μM) | TRP % Fold Act (SIRT1 [1]): B (Fold Activation<350%) | TAMRA EC1.5 (μM) (SIRT1 [2]): A (EC1.5<1 μM) | TAMRA % Fold Act (SIRT1 [2]): A (Fold activation≧350%)

O=C(Nc1cccnc1)c1cc(N2CCOCC2)nn2cc(-c3ccccc3C(F)(F)F)nc12 [Compound 45]
TRP EC1.5 (μM) (SIRT1 [1]): B (EC1.5 1−25 μM) | TRP % Fold Act (SIRT1 [1]): B (Fold Activation<350%) | TAMRA EC1.5 (μM) (SIRT1 [2]): B (EC1.5 1−25 μM) | TAMRA % Fold Act (SIRT1 [2]): A (Fold activation≧350%)

O=C(Nc1cccnc1)c1cc(N2CCOCC2)nn2cc(-c3cccc(F)c3)nc12 [Compound 28]
TRP EC1.5 (μM) (SIRT1 [1]): C (EC1.5>25 μM) | TRP % Fold Act (SIRT1 [1]): B (Fold Activation<350%) | TAMRA EC1.5 (μM) (SIRT1 [2]): C (EC1.5>25 μM) | TAMRA % Fold Act (SIRT1 [2]): B (Fold Activation<350%)

O=C(Nc1nccs1)c1ccnc2cc(-c3ccccc3C(F)(F)F)nn12 [Compound 79]
TRP EC1.5 (μM) (SIRT1 [1]): A (EC1.5<1 μM) | TRP % Fold Act (SIRT1 [1]): B (Fold Activation<350%) | TAMRA EC1.5 (μM) (SIRT1 [2]): B (EC1.5 1−25 μM) | TAMRA % Fold Act (SIRT1 [2]): B (Fold Activation<350%)

O=C(Nc1ccnc2cc(-c3ccccc3C(F)(F)F)nn12)c1ncc(F)cc1F [Compound 116]
TRP EC1.5 (μM) (SIRT1 [1]): C (EC1.5>25 μM) | TRP % Fold Act (SIRT1 [1]): B (Fold Activation<350%) | TAMRA EC1.5 (μM) (SIRT1 [2]): A (EC1.5<1 μM) | TAMRA % Fold Act (SIRT1 [2]): A (Fold activation≧350%)

Cc1cccnc1C(=O)Nc1ccnc2cc(-c3ccccc3C(F)(F)F)nn12 [Compound 112]
TRP EC1.5 (μM) (SIRT1 [1]): C (EC1.5>25 μM) | TRP % Fold Act (SIRT1 [1]): B (Fold Activation<350%) | TAMRA EC1.5 (μM) (SIRT1 [2]): A (EC1.5<1 μM) | TAMRA % Fold Act (SIRT1 [2]): A (Fold activation≧350%)

Cc1nc(C(=O)Nc2ccnc3cc(-c4ccccc4C(F)(F)F)nn23)cs1 [Compound 56]
TRP EC1.5 (μM) (SIRT1 [1]): C (EC1.5>25 μM) | TRP % Fold Act (SIRT1 [1]): B (Fold Activation<350%) | TAMRA EC1.5 (μM) (SIRT1 [2]): A (EC1.5<1 μM) | TAMRA % Fold Act (SIRT1 [2]): A (Fold activation≧350%)

O=C(Nc1nccs1)c1cc(N2CCOCC2)nn2cc(-c3cccc(C(F)(F)F)c3)nc12 [Compound 47]
TRP EC1.5 (μM) (SIRT1 [1]): C (EC1.5>25 μM) | TRP % Fold Act (SIRT1 [1]): B (Fold Activation<350%) | TAMRA EC1.5 (μM) (SIRT1 [2]): C (EC1.5>25 μM) | TAMRA % Fold Act (SIRT1 [2]): B (Fold Activation<350%)
